Source: patent publication US7339042B2, “Gene delivery to tumors” (University of Florida Research Foundation, Inc., priority 2003, dated 2008)

Key:
[1] = Fusion peptide cell killing, propidium iodide/FACS viability, RG2 cells; type: cell-based, rat; conditions: peptides in complete media for 1 hr, Table 2
Procedure: (§1) Other experiments were performed using two glioma cell lines, i.e., T98G and RG2. 1×10^6 cells per well were incubated in 6-well plates with peptides in complete media for 1 hr. Cells were removed from the plate using a cell stripper and the percentage of viable cells was determined by staining with propidium iodide and analyzing by fluorescence activated cell sorting (FACS).
(§2) There are 4 conserved amino acid differences between the rat and human CDKI sequence. Both sequences were attached to Tat and tested for cell killing activity in the rat glioma RG2 cells. Also the effect of orientation of the Tat and CDKI domains were tested. RG2 cells were plated on 6 well plates at approximately 70% confluency. Each of the peptides was added to the wells with increasing concentration. After 1 hr, cells were removed from the plates, washed 2× with PBS, stained with propidium iodide and analyzed by FACS for viable cells.
(§3) Cell viability studies were performed by plating the cells under the same conditions as the uptake studies. Cells were incubated with fluorescent peptides for 1 hr at 37° C. The cells were removed from the plate using cell striper. They were labeled with propidium iodide and fluorescein-AM. Percent PI positive cells were determined by FACS.
(§4) The cytotoxicity of the chimeric peptides was characterized using a cell viability assay. Peptides were added to cells at a fixed concentration. After a 30-minute incubation, cells were removed from the plate, stained with propidium iodide and the % positive cells were determined by FACS (fluorescent activated cell scanning). The test conditions were Tat, ANT, Tat-P14ARF, ANT-P14ARF and P14ARF. T98G cells were tested along with RG2 cells and A172 cells.

RG2 cells [2] = assay: as above; type: cell-based, rat; conditions: peptides in complete media for 1 hr, Table 2
Procedure: as §1, §2, §3, §4

[3] = tested on: T98G cells, RG2 cells and A172 cells; assay: Cell viability assay of chimeric peptides in three cell types; type: cell-based, human and rat; conditions: fixed concentration, 30-minute incubation
Procedure: Synthetic peptides labeled with an N-terminal fluorescein were synthesized to test the ability of a shuttle domain to enter brain tumor and endothelial cells. The amino acid sequences for the shuttle domain was derived from HIV Tat amino acid 47 to 56 ([…] SEQ ID NO:23)(Robert-Guroff et al., J. Virol. 64:3391-3398, 1990) to which AGGG was added to the N-terminus, and the antennapedia homeodomain from drosophila (ANT) ([…] SEQ ID NO:24) (Astriab-Fisher et al., Pharm. Res., 19:744-754, 2002). A synthetic peptide (PTD-5) reported to have similar properties as Tat and ANT was also tested (Mai J. C. et al, Cancer Res. 2001; 61: 7709-7712.). Uptake was tested in two human glioblastoma cell lines and a rat glioma cell line, the latter being used for the rat brain tumor model. A 1 μM concentration of each peptide was added to 10^6 cells in a 6 well plate. […] The Tat and ANT peptides were doubled in length by the addition of […] (SEQ ID NO: 25), amino acids 42 to 55 from a human cyclin-dependent kinase inhibitor 2A (melanoma, p16, inhibits CDK4) (CDKI), transcript variant 4, mRNA (accession no. NM_058195). […]
The cytotoxicity of the chimeric peptides was characterized using a cell viability assay. […] After a 30-minute incubation, cells were removed from the plate, stained with propidium iodide and the % positive cells were determined by FACS (fluorescent activated cell scanning). […]

[4] = tested on: two human glioblastoma cell lines and a rat glioma cell line; assay: Fluorescein peptide uptake, fluorescence microscopy, three glioma lines; type: cell-based; conditions: 1 μM peptide, 10^6 cells, all three cell types
Procedure: Synthetic peptides labeled with an N-terminal fluorescein were synthesized to test the ability of a shuttle domain to enter brain tumor and endothelial cells. The amino acid sequences for the shuttle domain was derived from HIV Tat amino acid 47 to 56 ([…] SEQ ID NO:23)(Robert-Guroff et al., J. Virol. 64:3391-3398, 1990) to which AGGG was added to the N-terminus, and the antennapedia homeodomain from drosophila (ANT) ([…] SEQ ID NO:24) (Astriab-Fisher et al., Pharm. Res., 19:744-754, 2002). A synthetic peptide (PTD-5) reported to have similar properties as Tat and ANT was also tested (Mai J. C. et al, Cancer Res. 2001; 61: 7709-7712.). Uptake was tested in two human glioblastoma cell lines and a rat glioma cell line, the latter being used for the rat brain tumor model. A 1 μM concentration of each peptide was added to 10^6 cells in a 6 well plate. […] The Tat and ANT peptides were doubled in length by the addition of […] (SEQ ID NO: 25), amino acids 42 to 55 from a human cyclin-dependent kinase inhibitor 2A (melanoma, p16, inhibits CDK4) (CDKI), transcript variant 4, mRNA (accession no. NM_058195). This domain binds MDM2 and inhibit ubiquination of P53, a tumor suppressor protein. […] Only the combination of Tat-CDKI was toxic to the cells, 65% killing for T98G and 61% killing for RG2 cells. […] Similar results were obtained with A172 cells. […]

RG2 cells [5] = assay: Kinetic uptake studies of fluorescent peptides; type: cell-based, rat
Procedure: A172 cells, T98G cells and RG2 cells were purchased from ATCC. Cells were cultured under standard conditions. For cell uptake studies, each cell type was plated in 6 well plates at 5×10^5 cells per well 24 hours before the experiment. Increasing concentration of fluorescent peptides from 0.5 μM to 10 μM was prepared in complete medium. Cells were incubated with each concentration for 5, 10, 20 and 30 minutes at 37° C. followed by removal and washing of cells with 4° C. PBS 3×. Cells were solubilized in 0.2 ml 1% TX-100, PBS, pH 7.4. Fluorescence was measured using a fluorescent plate reader. Concentrations were determined by standard curve and normalized to μg of cellular protein.
A172, T98G and RG2 cells were plated in 6 well plates and incubated with 1, 2.5, 5 and 10 uM fluorescein labeled peptides for 5, 15, 30 and 60 minutes. Cells were washed 3× with PBS, removed from the plates with trypsin, centrifuged for 2 minutes at 2K rpm in a desk top centrifuge, supernatants discarded and the cell pellets were solubilized in 1% TX-100, PBS, pH 7.4. Fluorescence was measured in a Perkin Elmer fluorimeter using ˜ex=480 nm and ˜em=520 nm with a 510 nm cut off filter. Amount of cell-associated protein was determined from the standard curve.
This peptide was further characterized with regard to dose response. […]

[6] = tested on: endothelial cells and smooth muscle cells of rat cerebral arteries; assay: Uptake of fluorescent peptides by pressure-mounted rat cerebral arteries; type: cell-based; conditions: extraluminal addition

C[C@H](N)C(=O)NCC(=O)NCC(=O)NCC(=O)N[C@@H](Cc1ccc(O)cc1)C(=O)NCC(=O)N[C@@H](CCCNC(=N)N)C(=O)N[C@@H](CCCCN)C(=O)N[C@@H](CCCCN)C(=O)N[C@@H](CCCNC(=N)N)C(=O)N[C@@H](CCCNC(=N)N)C(=O)N[C@@H](CCC(N)=O)C(=O)N[C@@H](CCCNC(=N)N)C(=O)N[C@@H](CCCNC(=N)N)C(=O)N[C@@H](CCCNC(=N)N)C(=O)O [Tat]
viability [1]: 94%
% Viable (RG2 cells [2]): ineffective
cells killed [3]: No impact on cell viability
fluorescence labeling of cells (uptake) [4]: preferentially labeled the cell nuclei
uptake rate (RG2 cells [5]): more rapid uptake than TatP14ARF
labeling of smooth muscle cells [6]: able to label the smooth muscle cells
